# B1: Bar1: α-factor degrading protease (protein, UniProt P12630 25-587, looked up)
# Barrierpepsin: LTNDGTGHLEFLLQHEEEMYYATTLDIGTPSQSLTVLFDTGSADFWVMDSSNPFCLPNSNTSSYSNATYNGEEVKPSIDCRSMSTYNEHRSSTYQYLENGRFYITYADGTFADGSWGTETVSINGIDIPNIQFGVAKYATTPVSGVLGIGFPRRESVKGYEGAPNEYYPNFPQILKSEKIIDVVAYSLFLNSPDSGTGSIVFGAIDESKFSGDLFTFPMVNEYPTIVDAPATLAMTIQGLGAQNKSSCEHETFTTTKYPVLLDSGTSLLNAPKVIADKMASFVNASYSEEEGIYILDCPVSVGDVEYNFDFGDLQISVPLSSLILSPETEGSYCGFAVQPTNDSMVLGDVFLSSAYVVFDLDNYKISLAQANWNASEVSKKLVNIQTDGSISGAKIATAEPWSTNEPFTVTSDIYSSTGCKSRPFLQSSTASSLIAETNVQSRNCSTKMPGTRSTTVLSKPTQNSAMHQSTGAVTQTSNETKLELSSTMANSGSVSLPTSNSIDKEFEHSKSQTTSDPSVAEHSTFNQTFVHETKYRPTHKTVITETVTKYSTVLINVCKPTY
# Columns and labels:
# Type in all cases: cell-based, Saccharomyces cerevisiae
# FUS1 promoter (pFUS1) = test: mCherry expression under control of pFUS1, with or without α-factor; details: after 24 h, culture with addition of 5 μM α-factor
# Method: (§1) Pre-cultures are prepared by inoculation of biological triplicates in CSM with appropriate amino acid drop out, and are grown for two days at 30° C., 250 rpm. Thereafter, they are inoculated to an OD of 0.05 in two duplicate tubes, whereof one is induced with 5 μM α-factor. Strains are grown at 30° C., 250 rpm for 24 h and samples are taken for flow cytometry after 0, 8 and 24 h. For characterization of strains with endogenous α-factor production, transformation plates and pre-culture media is supplemented with 5 μg/mL doxycycline. The pre-cultures are washed to remove Bar1 and doxycycline prior to inoculation. OD is measured at 600 nm and GFP and mCherry production is measured with a BD Accuri™ C6 flow cytometer from Becton, Dickinson and Company (Franklin Lakes, NJ, USA).
# (§2) To test the initial system configuration, pFUS1-Cre and pTEF1-loxP-GFP-loxP-mCherry is transformed into strain JL275 (BY4741 MATa Δbar1 Δfar1). Precultures are grown for two days in CSM-ura-leu. Each replicate is used to inoculate two cultures, whereof one is induced with 5 μM α-factor. Fluorescence is measured after 0, 8 and 24 h. […] This indicated a high basal level expression from the FUS1 promoter, leading to leaky expression of Cre recombinase and early recombination. To investigate this hypothesis, mCherry is cloned under control of pFUS1 and mCherry expression is measured at 0 and 24 h. […]
# [1] = test system: Ste2 receptor / pFUS1J2-ubiM-Cre circuit in strain JL275; test: Strain characterization: GFP and mCherry production by flow cytometry after α-factor induction of the Cre/loxP circuit; details: JL275 with pFUS1J2-ubiM-Cre and pTEF1-loxP-GFP-loxP-mCherry
# Method: as §1, §2
# strains JL277-JL280 = test: Autoinducible strains with endogenous α-factor production, fluorescence by TECAN plate reader; details: JL277-280 with pFUS1J2-ubiM-Cre pTDH3-rtTA pTETO3-BAR1 and pTEF1-loxP-GFP-loxP-mCherry; with or without 5 μM α-factor
# Method: To establish autoinducible strains, the α-factor-expressing gene MFα1 under control of four different native promoters with different expression strengths (pTDH3, pPGK1, pYEF3 and pACT1) is integrated into locus p416d into the genome of JL275, resulting in strains JL277-JL280, respectively. The strains are transformed with plasmids pFUS1J2-ubiM-Cre pTDH3-rtTA pTETO3-BAR1 and pTEF1-loxP-GFP-loxP-mCherry, inoculated into CSM-ura-leu supplemented with 5 μg/mL doxycycline and pre-cultured for two days. The pre-cultures are washed and inoculated to an OD of 0.05, and grown with or without 5 μM α-factor to compare endogenous and external inducibility. The strain fluorescence is measured with a TECAN plate reader. […] The strain also continued to produce GFP unless α-factor is added. This experiment is to be repeated according to the previously established strain characterization protocol and measured with a flow cytometer.
# [2] = test system: pTETO3-BAR1 control module in strain JL275; test: Functionality of doxycycline-inducible BAR1 expression (supernatant/α-factor mix); details: supernatant mixed with 600 μM α-factor, 30° C., 4 h
# Method: The functionality of Bar1 expression is investigated by transforming JL275 with pFUS1J2-ubiM-Cre pTDH3-rtTA pTETO3-BAR1 or control plasmid pFUS1-Cre. Both strains are inoculated in media with or without 5 μg/mL doxycycline, and are grown to stationary phase where after they are spun down. 0.5 mL supernatant is mixed with 0.5 mL 600 μM α-factor and incubated at 30° C. for 4 h. A corresponding amount of 5 μM α-factor (assuming no α-factor has been degraded) from each supernatant/α-factor incubation mix is used to induce cultures of JL275 with pFUS1J2-ubiM-Cre and pTEF1-loxP-GFP-loxP-mCherry (FIG. 4A). 0 and 5 μM α-factor are used as controls.
Molecule,mCherry expression from pFUS1 compared to the background strain autofluorescence (FUS1 promoter (pFUS1)),"System titratability (mCherry output) ([1]; 0, 0.1, 0.5, 1, 5 or 10 μM α-factor)","GFP to mCherry production shift ([1]; 5 μM α-factor, 0, 8 and 24 h)",mCherry production induction (strains JL277-JL280),Degradation of α-factor by supernatant [2]
α-factor,approximately 20 fold,mCherry output correlating to the amount of α-factor added,clear shift from GFP to mCherry production,barely induced unless α-factor is added,–
B1,–,–,–,–,functional and degrades α-factor

# Reference: US12331302B2, “Fungal autoinducible expression system” (priority 2019, dated 2025)
